Test results published in patent publication US9359383B2, “β-ketoimine ligand, method of preparing the same, metal complex comprising the same and method of forming thin film using the same” (SAMSUNG ELECTRONICS CO., LTD., priority 2011, dated 2016).

Tests used:
[1] = Purification by distillation under reduced pressure (thermal stability); assay type: physicochemical; conditions: distillation at 30-50 Pa and 200-220° C.
Description: Strontium complex compounds of Comparative Examples 1 to 8 were prepared using the β-ketoimine ligands, obtained in Synthesis Examples 4 to 11, in the same manner as Example 1. Purification of the strontium complex compounds of Comparative Examples 3, 4, 5, 6 and 8, which could be distilled, was carried out at a pressure of 30-50 Pa and a temperature of 200˜220° C. […] The strontium complex compounds of Comparative Examples 1 to 8 were analyzed in the same manner as Examples 1 to 3, thereby determining the chemical structures thereof.

[2] = Evaluation of solubility in organic solvent (Test Example 2); assay type: physicochemical; conditions: 0.1-0.7 mol added to 1000 ml solvent, sealed, stood 24 hours, visual observation
Description: For the strontium complex compounds of Examples 1 to 3 and Comparative Examples 2 to 8, the solubilities of the complex compounds in ethyl cyclohexane, diethyl glycol dimethyl ether and toluene were evaluated. The evaluation was performed by adding 0.1-0.7 mol of each of the strontium complex compounds to 1000 ml of each of the organic solvents, sealing the mixtures, allowing the mixtures to stand for 24 hours, and visually observing whether a solid occurred in the mixtures. […] In Table 3, the case in which the complex compound was dissolved at a concentration of less than 0.1 mol was indicated as “x”.

[3] = Thermal stability by TGA (Test Example 3); assay type: physicochemical; conditions: dry argon 100 ml/min, heating rate 10° C./min, sample 7-12 mg
Description: (§1) The strontium complex compounds of Examples 1 to 3 and Comparative Examples 5 to 8 were measured for thermal stability by TGA and DSC. The TGA measurement was carried out under the following conditions: dry argon flow rate: 100 ml/min; heating rate: 10° C./min; and a sample amount of 7-12 mg. The DSC measurement was carried out by injecting a sample into a closed metal container in a glove box in a dry argon atmosphere and heating the sample container at a rate of 10° C./min, in which the amount of the sample was 1-4 mg. In the TGA measurement, sampling and measurement were carried out in the glove box in the dry argon atmosphere.

[4] = Thermal stability by DSC (Test Example 3); assay type: physicochemical; conditions: closed metal container, dry argon, heating rate 10° C./min, sample 1-4 mg
Description: as §1

Compound | thermal stability (could not be purified by distillation) [1] | concentration of the strontium complex compound in the transparent liquid in which no solid was present, Diethylene glycol dimethyl ether [2] | concentration of the strontium complex compound in the transparent liquid in which no solid was present, Ethyl cyclohexane [2] | concentration of the strontium complex compound in the transparent liquid in which no solid was present, Toluene [2] | Remaining amount (wt % at 400 ° C.) [3] | Decomposition peak top temperature (° C.) [4] | melting point
COCC[N+]1=C(C)C=C(C(C)(C)C)[O][Sr-2]12[O]C(C(C)(C)C)=CC(C)=[N+]2CCOC [Comparative Example 1] | low thermal stability | – | – | – | – | – | –
CC1=[N+](CCN(C)C)[Sr-2]2([O]C(C(C)(C)C)=C1)[O]C(C(C)(C)C)=CC(C)=[N+]2CCN(C)C [Comparative Example 2] | low thermal stability | 0.3 mol | X (the case in which the complex compound was dissolved at a concentration of less than 0.1 mol was indicated as “x”) | 0.3 mol | – | – | –
CC(C)C1=[N+](C(C)CN(C)C)[Sr-2]2([O]C(C(C)(C)C)=C1)[O]C(C(C)(C)C)=CC(C(C)C)=[N+]2C(C)CN(C)C (stereo not drawn) [Comparative Example 4] | – | 0.4 mol | 0.3 mol | 0.7 mol | – | – | –
COCCCC1=[N+](CCCN(C)C)[Sr-2]2([O]C(C(C)(C)C)=C1)[O]C(C(C)(C)C)=CC(CCCOC)=[N+]2CCCN(C)C [Comparative Example 5] | – | 0.4 mol | X (the case in which the complex compound was dissolved at a concentration of less than 0.1 mol was indicated as “x”) | 0.1 mol | 26.2 wt % | 336.8 °C | –
COCC(C)[N+]1=C(C(C)C)C=C(C(C)(C)COC)[O][Sr-2]12[O]C(C(C)(C)COC)=CC(C(C)C)=[N+]2C(C)COC (stereo not drawn) [Comparative Example 6] | – | 0.4 mol | 0.5 mol | 0.4 mol | 3.7 wt % | 363.0 °C | –
COCC(C)(C)C1=CC(C(C)C)=[N+](CCN(C)C)[Sr-2]2([O]1)[O]C(C(C)(C)COC)=CC(C(C)C)=[N+]2CCN(C)C [Comparative Example 7] | low thermal stability | 0.2 mol | 0.3 mol | 0.3 mol | 10.2 wt % | 337.5 °C | –
COCCC(C)(C)C1=CC(C(C)C)=[N+](C(C)CN(C)C)[Sr-2]2([O]1)[O]C(C(C)(C)CCOC)=CC(C(C)C)=[N+]2C(C)CN(C)C (stereo not drawn) [Comparative Example 8] | – | X (the case in which the complex compound was dissolved at a concentration of less than 0.1 mol was indicated as “x”) | X (the case in which the complex compound was dissolved at a concentration of less than 0.1 mol was indicated as “x”) | 0.1 mol | 3.97 wt % | 368.2 °C | –
COCC(C)(C)C1=[O+][Sr-4]234([O+]=C(C(C)(C)COC)C=C(C(C)C)[N]2C(C)C[N+]3(C)C)[N](C(C(C)C)=C1)C(C)C[N+]4(C)C (stereo not drawn) [Example 1] | – | 0.7 mol | 0.7 mol | 0.7 mol | 0.61 wt % | 382.4 °C | 140 to 141 °C
CCOCC(C)(C)C(=O)C=C(C(C)C)[N]([Sr][N](C(=CC(=O)C(C)(C)COCC)C(C)C)C(C)CN(C)C)C(C)CN(C)C (stereo not drawn) [Example 2] | – | 0.7 mol | 0.6 mol | 0.7 mol | 1.40 wt % | 360.7 °C | –
CCC(C)C(=CC(=O)C(C)(C)COC)[N]([Sr][N](C(=CC(=O)C(C)(C)COC)C(C)CC)C(C)CN(C)C)C(C)CN(C)C (stereo not drawn) [Example 3] | – | 0.7 mol | 0.7 mol | 0.7 mol | 0.87 wt % | 393.2 °C | –
